From patent US12485134B2, “Use of nicotinamide riboside, nicotinic acid riboside, reduced nicotinyl riboside compounds, and nicotinyl riboside compound derivatives in formulations” (ChromaDex Inc., priority 2019, dated 2025)

Experiments:
[1] = Recovery of NR added to store bought (cow) milk, HILIC/HPLC/UV; type: physicochemical; conditions: cow's milk and human breast milk
Experimental: Nicotinamide riboside (NR, I) is also naturally found in milk. […] FIGS. 2B and 2C are control chromatograms showing detection of nicotinamide riboside (NR, I) after adding nicotinamide riboside (NR, I) to the milk sample at a known amount. […] The calculated recovery of the 1% nicotinamide riboside (NR, I) was close to 100%. […] Centrifugation was then performed to remove any precipitate, and the supernatant was analyzed using an HILIC/HPLC/UV using standard methods.

milk proteins = test: WaterLOGSY NMR, direct binding of 15N-labeled NR to milk proteins; conditions: no milk, 150 μL and 300 μL of milk
Source text: Whey protein fraction and casein protein have been identified as leading candidates to bind directly to and stabilize nicotinamide riboside (NR, I) in milk. The addition of these proteins in particular (either alone or in combination with other proteins and/or vitamins) in order to stabilize nicotinamide riboside (NR, I) in liquid constitutes another embodiment of a method of delivery of the present invention. […] In this experiment, Water-Ligand Observed via Gradient Spectroscopy (WaterLOGSY NMR) was used to detect direct binding of stable, isotope-labeled (^15N) nicotinamide riboside (NR, I) to milk proteins. This is visualized as a concentration-dependent shift in the nicotinamide riboside (NR, I) spectra with increasing additions of milk. The concentric shapes shifts from left to right are the results of addition of no milk, 150 μL of milk, and 300 μL of milk, respectively.

[2] = system: milk concentrate proteins; test: WaterLOGSY NMR binding of NR-Cl; conditions: milk concentrate, pH 7.0
Experimental: (§1) WaterLOGSY is a sensitive ligand-observed NMR experiment designed for the screening of protein ligands from a mixture of potential binders. […] The experiment relies on fast dissociation of bound ligands to carry into the free state magnetisation originating from irradiated water that has been transmitted via the protein complex.
(§2) NMR samples for WaterLOGSY were prepared as follows. Ligand-detect WaterLOGSY experiments were carried at 600 MHz with 5-mm cryoprobe and using 5-mm NMR tubes. Each NMR sample for WaterLOGSY contained ˜0.05 mg (˜0.35 mM), using unlabeled ligand NR-Cl (“NR”), in a NMR buffer containing ˜0.5 mL 90% H2O/10% ^2H2O at pH 7.0 with or without the milk and soy protein mix (compared to the WaterLOGSY of NR as a negative control). Protein was added as a powder with a minimal 15 to 50 μM concentration. Typically, the final NMR sample of protein-compound mixtures had >20-fold higher compound concentration of ligand compared to that of the protein. Denatured samples were prepared by simply heating (80° C. for 15-20 mins) the aqueous (5-10% ^2H2O) protein mixture (in absence of NR).
The NR only WaterLOGSY spectrum (FIG. 23) was the negative control to screen for any potential binding of NR-Cl to milk concentrate and soy isolate proteins as shown herein and discussed below.

[3] = system: protein components of a meal replacement beverage; test: WaterLOGSY NMR binding of NR-Cl; conditions: meal replacement beverage containing soy protein isolate and milk protein concentrate
Experimental: as §1, §2
The beverage that was tested contained soy protein isolate and milk protein concentrate and it could only be either of these ingredients that could contribute to the positive result that was observed. […]

[4] = mice on a high-fat diet supplemented with NR; cited from earlier work
[5] = Degradation tracking of 15N NR-Cl to 15N nicotinamide by 15N-1H HMBC and 1H NMR, with or without whey protein; type: physicochemical
Experimental: A series of 1D ^1H and 1D ^15N-^1H HMBC experiments were collected on a 600 MHz Bruker instrument with 5-mm cryoprobe and using 5-mm NMR tubes. Each sample contains ˜10 mM ^15N isotope labeled NR-Cl (or non-isotope), in a solution containing ˜0.5 mL 90% H2O/10% ^2H2O buffered at pH values of 7.0 (5 mM PBS) and 9.0 (50 mM Glycine/Sodium hydroxide), with or without whey protein. The NMR tube was incubated at 25° C. and data collected at 1, 3 and 7 days. The NMR results provided evidence of binding to milk and soy protein and provided evidence of increased stability in combination with Whey protein at different pH over a 7 day time-course.
FIG. 22 highlights the corresponding ^1H-NMR data for the increased stability of the NR-Cl at day 7 under pH 7 and 9 buffered conditions, compared to control.
The integrations for the peaks corresponding to ^15N NR-Cl and ^15N nicotinamide were measured for the degradation that had occurred to ^15N—NR-Cl from Day 1 to Day 7. […] The half-life for ^15N NR-Cl in buffered pH 9 conditions- improved from 2.7 days (control) to 10 days in the presence of Whey protein.

[6] = system: hydrolyzed whey protein isolate; test: NR-Cl binding to hydrolyzed whey protein isolate (10 kDa cutoff filtration, unbound NR-Cl in filtrate by HPLC); conditions: hydrolyzed whey protein isolate solutions, ambient and refrigerated
Experimental: A. Solutions of hydrolyzed whey protein isolate (>90% protein, 2-7% degree of hydrolysis) were prepared at varying concentrations and filtered through 0.2 μm sterile filters. An aliquot of sterile nicotinamide riboside chloride (“NR-Cl,” a salt of NR, I) in water solution was spiked into the sterile whey solutions, targeting a final NR-Cl concentration of 1 mmol per liter (0.3 mg/mL). The solutions containing the mixture of hydrolyzed whey and NR-Cl were filtered through 10 kDa molecular weight cutoff centrifuge filters to remove the whey proteins (14-80 kDa) and any NR-Cl that was bound to the proteins. Any NR-Cl that was not bound to the whey proteins was recovered in the filtrate and quantitated by HPLC.
The solutions of hydrolyzed whey protein isolate and NR-Cl were stored at ambient and refrigerated conditions and analyzed at various timepoints for NR-Cl protein binding and stability.
A study measuring the stability of NR-Cl in hydrolyzed and non-hydrolyzed whey protein was conducted with 2 mmol/L NR-Cl (0.6 mg/mL) and 20 mg/mL protein (33.3:1 wt:wt protein:NR-Cl). […] (See Table 5).

## NC(=O)c1ccc[n+]([C@@H]2O[C@H](CO)[C@@H](O)[C@H]2O)c1 [NR, Nicotinamide riboside]
[1]
  stability in milk: stable in milk
Milk proteins
  direct binding to milk proteins (WaterLOGSY, concentration-dependent shift): binds to proteins in milk
[2]
  WaterLOGSY binding: comparatively weaker binding
[3]
  WaterLOGSY binding: strongest evidence of NR binding
[4]
  less weight gained: 40%

## NC(=O)c1ccc[15n+]([C@@H]2O[C@H](CO)[C@@H](O)[C@H]2O)c1 [^15N NR-Cl, ^15N-labeled nicotinamide riboside chloride]
[5]; PBS buffer with whey protein, buffered pH 7, 25° C., in the presence of Whey protein
  half-life: 672 h
[5]; PBS buffer without whey protein (control), buffered pH 7, 25° C., control (without Whey protein)
  half-life: 81.6 h
[5]; buffered pH 9, 25° C., control (without Whey protein)
  half-life: 64.8 h
[5]; glycine/sodium hydroxide buffer with whey protein, buffered pH 9, 25° C., in the presence of Whey protein
  half-life: 240 h
[5]; pH 7.0 and 9.0, days 1, 3 and 7
  rate of degradation in the presence of Whey protein: slower than the control

## NC(=O)c1cccnc1 [nicotinamide]
[6]
  binding to whey: not observed to bind
